Patent US7060686B2, “Anti-inflammatory compounds derived from Pseudopterogorgia elisabethae” (The Regents of the University of California, priority 2000, dated 2006)

How the values were obtained:
[1] = test system: phorbol 12-myristate 13-acetate (PMA) induced ear edema; assay: Mouse ear anti-inflammatory assay; type: in vivo; settings: for inhibition in vivo at 25 µg/ear: Mus musculus, 200 min; for inhibition in vivo at 25 µg/ear / Edema (mg ± sem) / % Inhibition: topical, 200 minutes; for inhibition in vivo at 25 µg/ear / % Inhibition: 25 μg/ear with PMA, decrease in edema relative to PMA control group; for Edema (mg ± sem): 25 μg/ear test compound with 2 μg/ear PMA, left minus right ear bore weight, N=5; for Relative Potency, Pseudopterosin A: potency estimate relative to Pseudopterosin A (historical ED50 15 μg/ear); for Relative Potency, Pseudopterosin E: potency estimate relative to Pseudopterosin E (historical ED50 40 μg/ear)
Protocol: A. Mouse Ear Anti-Inflammatory Assay Each compound was topically applied in acetone to the inside pinnae of the ear of a mouse in a solution containing the edema-causing irritant, phorbol 12-myristate 13-acetate (PMA). 2 μg per ear of PMA alone or 25 μg per ear of test compound in combination with PMA was applied to the left ear of each mouse and acetone (control) was applied to each right ear of each mouse. There were 5 mice per treatment group. After incubating 200 minutes, the mice were sacrificed, the ears were removed, and bores were taken and weighed. Edema (inflammation) was measured by subtracting the weight of the right ear from the weight of the left ear. Results were recorded as % decrease (inhibition) or % increase (potentiation) in edema relative to the PMA control group edema.

[2] = test system: phorbol 12-myristate 13-acetate (PMA) induced ear edema; settings: Jacobs' historical standards; cited from earlier work

## CC(C)=C[C@H]1C[C@H](C)[C@H]2CC[C@H](C)C3=C2C1(O)C(C)=C(O)C3=O (stereo partly shown) [Compound 8, elisabethadiol]
[1]
  inhibition in vivo at 25 µg/ear: 9%
  Edema (mg ± sem): 6.2 ± 0.6 mg

## CC(=O)OC1C(C)OC(Oc2c(C)cc3c(c2O)[C@@H](C)CC[C@@H]3[C@@H](C)CCC=C(C)C)C(O)C1O (stereo partly shown) [Compound 6]
[1]
  inhibition in vivo at 25 µg/ear: 74%
  Relative Potency, Pseudopterosin A: 148%
  Relative Potency, Pseudopterosin E: 410%
  Edema (mg ± sem): 1.8 ± 0.3 mg

## CC(=O)OC1C(O)C(C)OC(Oc2c(C)cc3c(c2O)[C@@H](C)CC[C@@H]3[C@@H](C)CCC=C(C)C)C1O (stereo partly shown) [Compound 5]
[1]
  inhibition in vivo at 25 µg/ear: 65%
  Relative Potency, Pseudopterosin A: 103%
  Relative Potency, Pseudopterosin E: 288%
  Edema (mg ± sem): 2.4 ± 0.6 mg

## CC(=O)OC1COC(Oc2c(C)c3c4c(c2O)[C@@H](C)CC[C@@H]4[C@@H](C)CC3C=C(C)C)C(O)C1O (stereo partly shown) [Compound 3]
[1]
  inhibition in vivo at 25 µg/ear: 69%
  Relative Potency, Pseudopterosin A: 123%
  Relative Potency, Pseudopterosin E: 337%
  Edema (mg ± sem): 0.9 ± 0.2 mg

## CC(C)=C[C@H]1C[C@H](C)[C@H]2CC[C@H](C)c3c(O)c(O[C@@H]4O[C@@H](C)[C@@H](O)[C@@H](O)[C@@H]4O)c(C)c1c32 [Pseudopterosin E]
[2]
  ED50: 40 μg/ear

## CC(=O)OC1C(O)COC(Oc2c(C)c3c4c(c2O)[C@@H](C)CC[C@@H]4[C@@H](C)CC3C=C(C)C)C1O (stereo partly shown) [Compound 2]
[1]
  inhibition in vivo at 25 µg/ear: 88%
  Edema (mg ± sem): 0.8 ± 0.2 mg
  % Inhibition: highest percent inhibition

## CC(=O)OC1C(Oc2c(C)c3c4c(c2O)[C@@H](C)CC[C@@H]4[C@@H](C)CC3C=C(C)C)OCC(O)C1O (stereo partly shown) [Compound 1]
[1]
  inhibition in vivo at 25 µg/ear: 68%
  Relative Potency, Pseudopterosin A: 118%
  Relative Potency, Pseudopterosin E: 324%
  Edema (mg ± sem): 2.1 ± 0.5 mg

## CC(C)=C[C@H]1C[C@H](C)[C@H]2CC[C@H](C)c3c(O[C@@H]4OC[C@@H](O)[C@H](O)[C@H]4O)c(O)c(C)c1c32 [Pseudopterosin A]
[2]
  ED50: 15 μg/ear

## CC(C)=CCC[C@H](C)[C@H]1CC[C@H](C)C2=C1C(=O)C(C)=C(O)C2=O [Compound 7, elisabethadione]
[1]
  inhibition in vivo at 25 µg/ear: 83%
  Edema (mg ± sem): 1.2 ± 0.1 mg

## CC(=O)OC1C(Oc2c(C)cc3c(c2O)[C@@H](C)CC[C@@H]3[C@@H](C)CCC=C(C)C)OC(C)C(O)C1O (stereo partly shown) [Compound 4]
[1]
  inhibition in vivo at 25 µg/ear: 88%
  Edema (mg ± sem): 0.8 ± 0.2 mg
  % Inhibition: highest percent inhibition
